Reference: US8591935B2, “Methods and compositions for treating pain comprising a statin” (Warsaw Orthopedic, Inc., priority 2008, dated 2013)

Columns and labels:
[1] = test system: chronic constriction injury (CCI) rats; experiment: Mechanical allodynia: von Frey monofilament test in the chronic constriction injury model; format: in vivo, Wister rats
Experimental: This model may mimic pain associated with sciatica in humans. Twenty-eight male Wister rats (Charles River Laboratories, Wilmington, Mass.) weighing 300±26 g the day of surgery (Day 1) were used in this study. All experiments were conducted in accordance with the International Association for the Study of Pain guidelines and approved by the Institutional Animal Care and Use Committee at SRI International, Inc (Menlo Park, Calif.). CCI was induced according to the method of Bennett and Xie. Briefly, each animal was anesthetized by intraperitoneal (IP) injection of sodium pentobarbital at a dose of 60 mg/kg. The animal's common sciatic nerve was exposed and freed from adherent tissue at mid-thigh by separating the biceps femoris muscles by blunt dissection. Four loose ligatures were placed 1 mm apart, using chromic gut suture (4-0 absorbable suture; Jorgensen Laboratories, Inc., Loveland, Colo.). Seven animals were randomly assigned to each treatment group. Mechanical allodynia was measured using von Frey monofilaments (Stoelting, Wood Dale, Ill.) with varying stiffness (2.0-15.0 g) on Days −1 (baseline), 8, and 15 as described previously. Animals were placed on a perforated metallic platform and allowed to habituate to their surroundings for a minimum of 15 minutes before testing. The 50% paw withdrawal threshold response was determined by a sequential increasing and/or decreasing of the stimulus strength (the “up-down method” of Dixon). Each filament was applied with enough pressure to cause a buckling effect. Absence of a paw lifting/withdrawal response after 5 seconds prompted the use of the filament of next higher weight. Paw withdrawal indicating a positive response prompted the use of a weaker filament. After the initial response (i.e., paw withdrawal), the testing continued for four additional measurements and was used to calculate the response threshold. Four consecutive positive responses received a score of 0.25 g, and five consecutive negative responses (i.e., no paw withdrawal) received a score of 15 g. The 50% paw withdrawal threshold was calculated using the formula: 10 (Xf+kd)/10,000, where Xf is the final von Frey filament used (log units), k is a value that analyzes the response pattern (taken from the table published by Chaplan et al.), and d is the mean difference between stimuli (log units). The mean and standard error of the mean (SEM) were determined for each treatment group.

[2] = test system: chronic constriction injury (CCI) rats; experiment: Thermal hyperalgesia: paw withdrawal latency to thermal radiant heat (Hargreaves test) in the chronic constriction injury model; format: in vivo, Wister rats
Experimental: This model may mimic pain associated with sciatica in humans. Twenty-eight male Wister rats (Charles River Laboratories, Wilmington, Mass.) weighing 300±26 g the day of surgery (Day 1) were used in this study. All experiments were conducted in accordance with the International Association for the Study of Pain guidelines and approved by the Institutional Animal Care and Use Committee at SRI International, Inc (Menlo Park, Calif.). CCI was induced according to the method of Bennett and Xie. Briefly, each animal was anesthetized by intraperitoneal (IP) injection of sodium pentobarbital at a dose of 60 mg/kg. The animal's common sciatic nerve was exposed and freed from adherent tissue at mid-thigh by separating the biceps femoris muscles by blunt dissection. Four loose ligatures were placed 1 mm apart, using chromic gut suture (4-0 absorbable suture; Jorgensen Laboratories, Inc., Loveland, Colo.). Seven animals were randomly assigned to each treatment group. […] The radiant infrared heat source stimulus intensity was set to IR50 and the cut-off time was set at 15 seconds. Rats were placed on a glass platform and allowed to habituate to the testing chambers for a minimum of 15 minutes prior to each testing session. The thermal stimulus was applied to the plantar surface of the paw. Thermal thresholds were defined as the latency in seconds at the first pain behavior, which includes paw withdrawal, flinching, biting and/or licking of the stimulated paw. The readings for all animals were averaged and the mean and standard error of the mean (SEM) were determined for each treatment group.

[3] = lovastatin 0.3 mg/kg/day IP for 15 days, CCI rats
[4] = lovastatin 3 mg/kg/day IP for 15 days, CCI rats
[5] = sulindac 2 mg/kg/day IP for 15 days, CCI rats

| SMILES | mechanical allodynia pain behavioral response compared with the 0.3 mg/kg/day group ([1]; lovastatin 40 ng/hr group) | pain reduction, von Frey paw withdrawal threshold (mechanical stimulation) vs PBS vehicle [1, 3] | mechanical allodynia pain behavioral response ([1]; lovastatin 0.3 mg/kg/day, all time points) | pain reduction, von Frey paw withdrawal threshold (mechanical stimulation) vs PBS vehicle [1, 4] | pain reduction, von Frey paw withdrawal threshold (mechanical stimulation) vs PBS vehicle ([1]; lovastatin 3 mg/kg/day IP, at day 15) | mechanical allodynia pain response compared with 50:50 DMSO/PBS vehicle control ([1]; lovastatin 0.4 mcg/hr) | thermal hyperalgesia withdrawal score, course over the study ([2]; high dose lovastatin pump group, 0.4 mcg/hr) | thermal hyperalgesia withdrawal score compared with other statin groups ([2]; high dose lovastatin pump group, 0.4 mcg/hr, day 21) | pain reduction, paw withdrawal latency to thermal radiant heat vs PBS vehicle [2, 3] | thermal withdrawal time as % of per-operative baseline ([2]; lovastatin 0.3 mg/kg/day IP, Day 7) | thermal hyperalgesia pain behavioral response vs 50:50 DMSO/PBS vehicle ([2]; lovastatin 0.3 mg/kg/day IP, all days tested) | thermal withdrawal time as % of per-operative baseline ([2]; lovastatin 0.3 mg/kg/day IP, days 14 and 21) | pain reduction, paw withdrawal latency to thermal radiant heat vs PBS vehicle [2, 4] | pain reduction, paw withdrawal latency to thermal radiant heat vs PBS vehicle ([2]; lovastatin 3 mg/kg/day IP, at day 14) | thermal withdrawal scores as % of baseline ([2]; low dose lovastatin group (100-fold decrease from 0.3 mg/kg/day), all testing days) | pain reduction, von Frey paw withdrawal threshold (mechanical stimulation) vs PBS vehicle [1, 5] | pain reduction, von Frey paw withdrawal threshold (mechanical stimulation) vs PBS vehicle ([1]; sulindac 2 mg/kg/day IP, at 8 and 15 days) | pain reduction, paw withdrawal latency to thermal radiant heat vs PBS vehicle [2, 5] | pain reduction, paw withdrawal latency to thermal radiant heat vs PBS vehicle ([2]; sulindac 2 mg/kg/day IP, at 7 and 14 days) |
| --- | --- | --- | --- | --- | --- | --- | --- | --- | --- | --- | --- | --- | --- | --- | --- | --- | --- | --- | --- |
| CC[C@H](C)C(=O)O[C@H]1C[C@@H](C)C=C2C=C[C@H](C)[C@H](CC[C@@H]3C[C@@H](O)CC(=O)O3)[C@H]21 [lovastatin] | probably statistically equivalent | effective at reducing pain | able to reduce this pain behavioral response at all time points | effective at reducing pain | particularly effective | probably statistically equivalent to the vehicle control | steadily improved during the course of the study | statistically equivalent to the other two statin groups | effective at reducing pain | 68% | reduced this pain behavioral response at all days tested | 61% | effective at reducing pain | particularly effective | ~60% |  |  |  |  |
| CC1=C(CC(=O)O)c2cc(F)ccc2/C1=C\c1ccc([S+](C)[O-])cc1 (stereo not shown) [sulindac] |  |  |  |  |  |  |  |  |  |  |  |  |  |  |  | effective at reducing pain | particularly effective | effective at reducing pain | particularly effective |
